Source: ChEMBL document CHEMBL1201862, “PubChem BioAssay data set” (2004)
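96-well plates; 48 h exposure; 5 concentrations. Endpoints by linear interpolation between flanking doses. Not reached: highest tested concentration assigned. GI50 is the concentration that inhibits growth by half.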 Activity calls are given as the source filed them. No stated cut-off is given here; in the data, active = GI50 up to about 1.1 µM and inactive = higher.

Legend:
Test in all cases: NCI tumour cell line growth inhibition, 48 h
786-0 = tested on: 786-0
KM12 = tested on: KM12
RPMI-8226 = tested on: RPMI-8226
CAKI-1 = tested on: CAKI-1
SNB-75 = tested on: SNB-75
SF-539 = tested on: SF-539
HT-29 = tested on: HT-29
SF-295 = tested on: SF-295
Malme-3M = tested on: Malme-3M
NCI-H226 = tested on: NCI-H226
UACC-257 = tested on: UACC-257
NCI-H460 = tested on: NCI-H460
SK-MEL-5 = tested on: SK-MEL-5
HL-60 = tested on: HL-60
U-251 = tested on: U-251
K562 = tested on: K562
A549 = tested on: A549
SR = tested on: SR

Measured: GI50

O=C(N/C(=C\c1ccc(/C=C(\NC(=O)c2ccccc2)c2nc3ccccc3s2)cc1)c1nc2ccccc2s1)c1ccccc1
inactive: 786-0 1.82 µM | KM12 8.45 µM | RPMI-8226 3.64 µM | CAKI-1 14.9 µM | SNB-75 5.48 µM | SF-539 2.14 µM | HT-29 3.73 µM | SF-295 4.5 µM | Malme-3M 11.9 µM | NCI-H226 19.1 µM | UACC-257 5.18 µM | NCI-H460 4.25 µM | SK-MEL-5 4.88 µM | HL-60 1.71 µM | U-251 2.59 µM | K562 5.38 µM | A549 13.5 µM

Cc1c(C#N)c(=O)[nH]c(=O)n1CCN1CCN(C(=O)NCCCCCCNC(=O)N2CCN(CCn3c(C)c(C#N)c(=O)[nH]c3=O)CC2)CC1
inactive: 786-0 > 100 µM | RPMI-8226 > 100 µM | CAKI-1 > 100 µM | SNB-75 > 100 µM | SF-539 > 100 µM | HT-29 > 100 µM | SF-295 > 100 µM | UACC-257 > 100 µM | NCI-H460 > 100 µM | SK-MEL-5 > 100 µM | HL-60 > 100 µM | U-251 > 100 µM | K562 > 100 µM | A549 > 100 µM

N#Cc1cccc(C2C(=O)c3ccc(C(=O)c4ccc5c(c4)C(=O)N(c4ccc(Oc6ccc(N7C(=O)c8ccc(C(=O)c9ccc%10c(c9)C(=O)N(c9cccc(C#N)c9)C%10=O)cc8C7=O)cc6)cc4)C5=O)cc3C2=O)c1 (stereo unspecified)
inactive: 786-0 > 100 µM | KM12 > 100 µM | RPMI-8226 > 100 µM | SNB-75 > 100 µM | SF-539 > 100 µM | HT-29 > 100 µM | SF-295 > 100 µM | Malme-3M > 100 µM | UACC-257 > 100 µM | NCI-H460 > 100 µM | SK-MEL-5 > 100 µM | HL-60 > 100 µM | U-251 > 100 µM | K562 > 100 µM | A549 > 100 µM

CCCCNC(=S)Nn1c(-c2ccccc2)nc2ccccc2c1=O
inactive: 786-0 > 100 µM | KM12 > 100 µM | RPMI-8226 > 100 µM | CAKI-1 > 100 µM | SNB-75 41.7 µM | SF-539 > 100 µM | HT-29 68.5 µM | SF-295 > 100 µM | Malme-3M > 100 µM | NCI-H226 > 100 µM | UACC-257 > 100 µM | NCI-H460 > 100 µM | SK-MEL-5 > 100 µM | HL-60 25.7 µM | U-251 > 100 µM | K562 67.1 µM | A549 > 100 µM

N[C@H](C(=O)O)[C@@H](Cl)CC(=O)O
inactive: 786-0 > 100 µM | KM12 > 100 µM | RPMI-8226 > 100 µM | CAKI-1 > 100 µM | SNB-75 > 100 µM | SF-539 > 100 µM | HT-29 > 100 µM | SF-295 > 100 µM | Malme-3M > 100 µM | NCI-H226 > 100 µM | UACC-257 > 100 µM | NCI-H460 > 100 µM | SK-MEL-5 > 100 µM | HL-60 > 100 µM | U-251 > 100 µM | K562 > 100 µM | A549 > 100 µM

Cc1cc(C)c(S(=O)(=O)ONC(=O)OC(C)(C)C)c(C)c1
inactive: 786-0 > 100 µM | KM12 > 100 µM | RPMI-8226 > 100 µM | CAKI-1 > 100 µM | SNB-75 > 100 µM | SF-539 > 100 µM | HT-29 > 100 µM | SF-295 > 100 µM | Malme-3M > 100 µM | UACC-257 > 100 µM | NCI-H460 > 100 µM | SK-MEL-5 > 100 µM | HL-60 > 100 µM | U-251 > 100 µM | K562 > 100 µM | A549 > 100 µM

O=C1C=CC2(CCC23C=CC(=O)O3)O1 (stereo unspecified)
inactive: 786-0 > 100 µM | KM12 > 100 µM | RPMI-8226 > 100 µM | SNB-75 > 100 µM | SF-539 > 100 µM | HT-29 > 100 µM | SF-295 > 100 µM | Malme-3M > 100 µM | NCI-H226 > 100 µM | UACC-257 > 100 µM | NCI-H460 > 100 µM | HL-60 74.8 µM | U-251 > 100 µM | K562 > 100 µM | A549 > 100 µM

Nn1c(-c2ccccc2)nc2ccc(Br)cc2c1=O
inactive: 786-0 47.2 µM | KM12 86.1 µM | RPMI-8226 30.9 µM | CAKI-1 38.5 µM | SNB-75 > 100 µM | SF-539 53.8 µM | HT-29 61 µM | SF-295 58.1 µM | Malme-3M 15.1 µM | NCI-H226 57.5 µM | UACC-257 > 100 µM | NCI-H460 61.4 µM | SK-MEL-5 53.1 µM | HL-60 15.6 µM | U-251 41.4 µM | K562 29.3 µM | A549 > 100 µM

COC(=O)C1(C(=O)OC)CC(=O)c2cc3c(cc2-c2c(cc(OC)c(OC)c2OC)C1)OCO3
inactive: 786-0 > 211 µM | KM12 71.6 µM | CAKI-1 > 211 µM | SF-539 > 211 µM | HT-29 > 211 µM | SF-295 80.4 µM | Malme-3M > 211 µM | NCI-H226 95.5 µM | UACC-257 139 µM | NCI-H460 > 211 µM | SR 70.3 µM | SK-MEL-5 123 µM | HL-60 67.1 µM | U-251 > 211 µM | K562 139 µM | A549 > 211 µM

C[Si](C)(C)/C=C/CCC(C=O)(CCCl)c1ccccc1 (stereo unspecified)
inactive: 786-0 16.3 µM | KM12 26.7 µM | SNB-75 35.2 µM | SF-539 31.2 µM | HT-29 14.6 µM | SF-295 21.1 µM | Malme-3M 17.6 µM | UACC-257 26.2 µM | NCI-H460 31.6 µM | SR > 10 µM | SK-MEL-5 17.8 µM | HL-60 6.98 µM | U-251 15.7 µM | K562 25 µM | A549 23.4 µM

Cc1cccc(-c2nnc3s/c(=C\c4ccc(N(C)C)cc4)c(=O)n23)c1
inactive: 786-0 > 100 µM | KM12 > 100 µM | RPMI-8226 > 100 µM | CAKI-1 > 100 µM | SNB-75 > 100 µM | SF-539 > 100 µM | SF-295 > 100 µM | Malme-3M > 100 µM | NCI-H226 > 100 µM | UACC-257 > 100 µM | NCI-H460 > 100 µM | SK-MEL-5 > 100 µM | HL-60 > 100 µM | U-251 > 100 µM | K562 > 100 µM | A549 > 100 µM

O=C(Oc1ccc2c(-c3ccccc3)c(C(=O)Nc3ccc(Cl)cc3)c(=O)oc2c1)c1ccccc1
inactive: 786-0 > 100 µM | KM12 > 100 µM | RPMI-8226 > 100 µM | SNB-75 52.2 µM | SF-539 > 100 µM | HT-29 > 100 µM | SF-295 > 100 µM | Malme-3M > 100 µM | NCI-H226 > 100 µM | UACC-257 > 100 µM | NCI-H460 > 100 µM | SK-MEL-5 > 100 µM | HL-60 > 100 µM | U-251 > 100 µM | K562 > 100 µM | A549 > 100 µM
